{"source": "patent US11801252B2", "about": "“Pharmaceutical composition” (Jiangsu Hengrui Medicine Co., Ltd., priority 2021, dated 2023)", "test": "In vivo food effects study in healthy subjects (Test Example 3)", "design": "species or system human (healthy male subjects)", "conditions": "after Test Formulation 300 mg single oral; for AUC—% Extrap of SNAC / CLz/F of SNAC / λz of SNAC: healthy male subjects, Mean ± SD; for AUC(0-t) / AUC(0-inf) / Cmax / MRT last / MRT inf / Vd/F / half-life / Tmax: male, human, plasma, po, 300 mg; for AUC(0-t): read-out: AUC0-t of SNAC; for AUC(0-inf): read-out: AUC0-∞ of SNAC; for Cmax: read-out: Cmax of SNAC; for MRT last: read-out: MRT0-t of SNAC; for MRT inf: read-out: MRT0-∞ of SNAC; for Vd/F: read-out: Vz/F of SNAC; for half-life: read-out: t1/2 of SNAC (converted); for Tmax: read-out: Tmax of SNAC", "text": "To study the effect of food on the pharmacokinetic characteristics of abiraterone acetate tablets through a single oral administration of abiraterone acetate tablets under fasting state or after meal, or a single oral administration of abiraterone acetate tablets (Zytiga®) produced by Patheon Inc. under modified fasting state, in healthy subjects.\nA single-center, randomized, open-label, three-period, self-controlled crossover trial design was applied. A total of 24 healthy male subjects were planned to be enrolled in the study. The washout period between each dose group was seven days. Blood samples were collected at a series of time points, and safety test was performed. The HPLC-MS/MS method was used to determine the plasma concentration of abiraterone and SNAC at different time points after drug administration. The non-compartmental model was used to calculate the pharmacokinetic parameters, and statistical analysis was performed.\nThe subjects were orally administered a single dose of the test formulation (T) under fasting state at a dose of 300 mg (150 mg×2 tablets), a single dose of the test formulation (T) of 300 mg abiraterone acetate tablets (I) (150 mg×2 tablets) after a high-fat meal (the total calories were approximately 800˜1,000 kcal, wherein approximately 50% of the calories were derived from fat; the test meal of each test cycle for the postprandial administration should be consistent; a high-fat meal was given 30 minutes before drug administration and should be finished within 30 minutes), or a single dose of the reference preparation of 1,000 mg abiraterone acetate tablets (Zytiga®) (250 mg×4 tablets) under modified fasting state (a medium-fat meal was given two hours before drug administration and one hour after drug administration; the total calories were approximately 450 kcal wherein 30% of the calories were derived from fat; the meal should be finished within 30 minutes), with 240 mL of warm water, in the morning on the day of drug administration for each cycle. Liquid was prohibited before administration and one hour after drug administration, and a standard lunch and dinner (a standardized light diet) were given approximately 4 and 10 hours after drug administration. The drug was swallowed whole instead of being sucked or chewed.\nTest Formulation (T): Abiraterone acetate tablets (Formulation 5), specification: 150 mg;\nReference Preparation (R): Abiraterone Acetate Tablets; produced by Patheon Inc.; trade name: Zytiga®; specification: 250 mg.\nThe PKPS was used for the statistical analysis of pharmacokinetic parameters.\n(§1) With the dosing order, dosing cycle and dosing regimen as fixed effects, the subjects were included as random effects in the linear mixed model as random effects. The least-squares mean ratio of Cmax, AUC0-t and AUC0-∞ of abiraterone in plasma after oral administration of the test formulation T under a high-fat meal or fasting states, and its 90% confidence interval were calculated.\nas §1, with “dosing orders,” for “dosing order,”, “mixed model.” for “mixed model as random effects.”, “meal and oral administration of the reference formulation R under modified” for “meal or”", "key": {"[1]": {"conditions": "after a high-fat meal, N = 24, Mean ± SD"}, "[2]": {"conditions": "fasting state, N = 23, Mean ± SD"}}, "note": "Like-named read-outs stand apart in the source and are kept apart here.", "data": [{"compound": "O=C([O-])CCCCCCCNC(=O)c1ccccc1O.[Na+]", "note": "[SNAC, sodium 8-(salicylamido)caprylate]", "values": [{"measurement": "AUC—% Extrap of SNAC", "setting": "after a high-fat meal, N = 24", "result": "0.46 ± 0.63", "unit": "%"}, {"measurement": "CLz/F of SNAC", "setting": "after a high-fat meal, N = 24", "result": "198.03 ± 28.78", "unit": "mL/h"}, {"measurement": "λz of SNAC", "setting": "after a high-fat meal, N = 24", "result": "0.27 ± 0.12", "unit": "h⁻¹"}, {"measurement": "AUC—% Extrap of SNAC", "setting": "fasting state, N = 23", "result": "0.66 ± 0.54", "unit": "%"}, {"measurement": "CLz/F of SNAC", "setting": "fasting state, N = 23", "result": "255.02 ± 72.16", "unit": "mL/h"}, {"measurement": "λz of SNAC", "setting": "fasting state, N = 23", "result": "0.19 ± 0.08", "unit": "h⁻¹"}, {"measurement": "AUC(0-t)", "setting": "[1]", "result": "1540 ± 247", "unit": "ng·h/mL"}, {"measurement": "AUC(0-inf)", "setting": "[1]", "result": "1550 ± 245", "unit": "ng·h/mL"}, {"measurement": "Cmax", "setting": "[1]", "result": "1120 ± 574", "unit": "ng/mL"}, {"measurement": "MRT last", "setting": "[1]", "result": "2.28 ± 0.99", "unit": "h"}, {"measurement": "MRT inf", "setting": "[1]", "result": "2.36 ± 1", "unit": "h"}, {"measurement": "Vd/F", "setting": "[1]", "result": "0.87 ± 0.362", "unit": "L"}, {"measurement": "half-life", "setting": "[1]", "result": "3.06 ± 1.19", "unit": "h"}, {"measurement": "Tmax", "setting": "after a high-fat meal, N = 24, median", "result": 1.13, "unit": "h"}, {"measurement": "AUC(0-t)", "setting": "[2]", "result": "1250 ± 305", "unit": "ng·h/mL"}, {"measurement": "AUC(0-inf)", "setting": "[2]", "result": "1250 ± 306", "unit": "ng·h/mL"}, {"measurement": "Cmax", "setting": "[2]", "result": "1580 ± 697", "unit": "ng/mL"}, {"measurement": "MRT last", "setting": "[2]", "result": "1.59 ± 1.35", "unit": "h"}, {"measurement": "MRT inf", "setting": "[2]", "result": "1.74 ± 1.38", "unit": "h"}, {"measurement": "Vd/F", "setting": "[2]", "result": "1.62 ± 0.949", "unit": "L"}, {"measurement": "half-life", "setting": "[2]", "result": "4.22 ± 1.71", "unit": "h"}, {"measurement": "Tmax", "setting": "fasting state, N = 23, median", "result": 0.5, "unit": "h"}]}]}
